The text below walks through data of patent US7608617B2, “Naphthaline derivatives as H3 inverse agonists” (Hoffmann-La Roche Inc., priority 2004, dated 2009).

By Ki is commonly meant a dissociation constant, usually derived from enzyme kinetics or from competition with a known ligand.

Counter-ions that a name gives are not always drawn.

The test deals with T1, histamine 3 receptor (H3R) (Homo sapiens, UniProt Q9Y5N1).
T1 construct: expressed in transfected cells; host or cells: CHO cells (HR3-CHO cell line), membranes
T1 sequence (Q9Y5N1 whole entry): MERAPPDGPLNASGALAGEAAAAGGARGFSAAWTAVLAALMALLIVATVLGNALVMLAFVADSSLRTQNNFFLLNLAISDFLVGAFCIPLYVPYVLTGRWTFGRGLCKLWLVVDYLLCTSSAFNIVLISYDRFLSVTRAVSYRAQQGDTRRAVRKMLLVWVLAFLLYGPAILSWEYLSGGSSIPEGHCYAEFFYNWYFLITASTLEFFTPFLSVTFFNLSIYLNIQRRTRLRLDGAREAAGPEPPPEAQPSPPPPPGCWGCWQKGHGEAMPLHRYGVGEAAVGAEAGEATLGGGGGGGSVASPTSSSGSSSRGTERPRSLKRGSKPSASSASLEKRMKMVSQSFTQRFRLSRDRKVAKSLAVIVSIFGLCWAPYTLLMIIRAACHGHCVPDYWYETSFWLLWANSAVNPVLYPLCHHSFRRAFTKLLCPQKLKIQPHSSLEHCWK
The test is described as follows: Binding assay with 3H-(R)α-methylhistamine (competition binding, membranes of the human HR3-CHO cell line). As to conditions: competition with 3H(R)α-Methylhistamine 1 nM, Ki calculated from IC50 by Cheng-Prusoff equation. The method, then: Binding assay with ^3H—(R)α-methylhistamine
Saturation binding experiments were performed using HR3—CHO membranes prepared as described in Takahashi, K, Tokita, S., Kotani, H. (2003) J. Pharmacol. Exp. Therapeutics 307, 213-218.
An appropriate amount of membrane (60 to 80 μg protein/well) was incubated with increasing concentrations of ^3H(R)α-Methylhistamine di-hydrochloride (0.10 to 10 nM). Non specific binding was determined using a 200 fold excess of cold (R)α-Methylhistamine dihydrobromide (500 nM final concentration). The incubation was carried out at room temperature (in deep-well plates shaking for three hours). The final volume in each well was 250 μl. The incubation was followed by rapid filtration on GF/B filters (pre-soaked with 100 μl of 0.5% PEI in Tris 50 mM shaking at 200 rpm for two hours). The filtration was made using a cell-harvester and the filter plates were then washed five times with ice cold washing buffer containing 0.5 M NaCl. After harvesting, the plates were dried at 55° C. for 60 min, then we added scintillation fluid (Microscint 40, 40 microl in each well) and the amount of radioactivity on the filter was determined in Packard top-counter after shaking the plates for two hours at 200 rpm at room temperature.
Binding Buffer: 50 mM Tris-HCl pH 7.4 and 5 mM MgCl2x 6H2O pH 7.4. Washing Buffer: 50 mM Tris-HCl pH 7.4 and 5 mM MgCl2×6H2O and 0.5 M NaCl pH 7.4:
Indirect measurement of affinity of H3R inverse agonists: twelve increasing concentrations (ranging from […] to 0.3 nM) of the selected compounds were always tested in competition binding experiments using membrane of the human HR3-CHO cell line. An appropriate amount of protein, e.g. approximately 500 cpm binding of RAMH at Kd, were incubated for 1 hour at room temperature in 250 μl final volume in 96-well plates in presence of ^3H(R)α-Methylhistamine (1 nM final concentration=Kd). […]
All compounds were tested at a single concentration in duplicates. […] Ki's were calculated from IC50 based on Cheng-Prusoff equation (Cheng, Y, Prusoff, W H (1973) Biochem Pharmacol 22, 3099-3108).
As for `O=C(c1ccc2cc(OCCCN3CCCCC3)ccc2c1)N1CCCCC1` [Example 1, piperidin-1-yl-[6-(3-piperidin-1-yl-propoxy)-naphthalen-2-yl]-methanone 1:1 hydrochloride], the Ki was 26 nM. To `CC1CCCCN1CCCOc1ccc2cc(C(=O)N(C)Cc3ccccc3)ccc2c1` (stereo not drawn) [Example 13, 6-[3-(2-methyl-piperidin-1-yl)-propoxy]-naphthalene-2-carboxylic acid benzyl-methyl-amide 1:1 hydrochloride] belongs 111 nM. To `CC1CCN(C(=O)c2ccc3cc(OCCC4CCCN4C)ccc3c2)CC1` (stereo not drawn) [Example 31, (4-methyl-piperidin-1-yl)-{6-[2-(1-methyl-pyrrolidin-2-yl)-ethoxy]-naphthalen-2-yl}-methanone 1:1 hydrochloride] belongs 571 nM.
